Measured values as given in ChEMBL document CHEMBL4190360, “Exploring Heteroaryl-pyrazole Carboxylic Acids as Human Carbonic Anhydrase XII Inhibitors” (ACS Med Chem Lett, 2017).

Assays:
Carbonic anhydrase 9 = Carbonic anhydrase 9 (Homo sapiens, UniProt Q16790)
Description: Inhibition of recombinant human carbonic anhydrase 9 catalytic domain preincubated for 15 mins prior to testing measured for 10 to 100 secs by phenol red-based stopped-flow CO2 hydration assay

SH-SY5Y [1] = assay: Growth inhibition of human SH-SY5Y cells at 1 to 100 uM after 24 hrs by MTS assay relative to control; type: functional
HEK293 [2] = assay: (§1) Growth inhibition of HEK293 cells at 1 to 100 uM after 24 hrs by MTS assay relative to control; type: cell-based; details: human, hek293, 24 h, 100 µM
PC-3 = assay: Growth inhibition of human PC3 cells at 1 to 100 uM after 24 hrs by MTS assay relative to control; type: functional
[3] = as §1; type: cell-based; details: human, HEK293 cells; read-out: GI
HEK293 [4] = assay: Growth inhibition of HEK293 cells after 24 hrs by MTS assay; type: cell-based; details: human, hek293, 24 h
SH-SY5Y [5] = assay: Antiproliferative activity against CoCl2-simulated human SH-SY5Y cells assessed as reduction in cell viability at 30 uM pretreated for 24 hrs followed by CoCl2 addition measured after overnight incubation by MTS assay; type: functional

| SMILES | Ki (Carbonic anhydrase 9) [µM] | growth inhibition (GI) (SH-SY5Y [1]) [%] | growth inhibition (GI) (HEK293 [2]) | growth inhibition (GI) (PC-3) [%] | inhibition at 24 h, 100 µM [3] [%] | growth inhibition (GI) (HEK293 [4]) | Activity (SH-SY5Y [5]) [%] |
| --- | --- | --- | --- | --- | --- | --- | --- |
| CCn1cc(-c2cc(C(=O)O)n(C)n2)c2ccccc21 | 2.91 | – | – | – | – | – | – |
| CCn1cc(-c2cc(C(=O)O)n[nH]2)c2ccccc21 | – | 85 | Non-Toxic | 85 | – | – | – |
| CCn1cc(-c2cc(C(=O)OC)[nH]n2)c2ccccc21 | 0.47 | 85 | Non-Toxic | 85 | – | – | – |
| CCCCn1cc(-c2cc(C(=O)OC)[nH]n2)c2ccccc21 | 7.9 | – | – | – | – | – | – |
| COC(=O)c1cc(-c2cn(C(C)C)c3ccccc23)n[nH]1 | 7.36 | 85 | – | 85 | 70 | Dose-dependent effect | 40 |
| CCCCn1cc(-c2cc(C(=O)O)[nH]n2)c2ccccc21 | 4.51 | – | – | – | – | – | – |
| CCn1cc(-c2cc(C(=O)OC)n(C)n2)c2ccccc21 | 3.02 | – | – | – | – | – | – |
| CC(C)n1cc(-c2cc(C(=O)O)[nH]n2)c2ccccc21 | 18.9 | 85 | Non-Toxic | 85 | – | – | – |
